Data taken from article PMC11613437, “Prioritization of Eleven-Nineteen-Leukemia Inhibitors as Orally Available Drug Candidates for Acute Myeloid Leukemia” (Journal of Medicinal Chemistry, 2024).
Several values for one entry are separate records, joined by “and”; a condition that tells them apart may be missing. Identical values can stand only once. Like-named read-outs stand apart in the source and are kept apart here.

How the values were obtained:
[1] = Log D at pH 7.4 (chromatographic procedure); format: physicochemical; settings: n-octanol / aqueous buffer pH 7.4, pH 7.4
Description: Log D at 7.4, which is a partition coefficient between n-octanol and aqueous buffer pH 7.4 of the compounds was measured on the chromatographic procedure whose condition was developed based on a published method.[35]

[2] = Cell toxicity assay (CCK-8), HEK293T; format: cell-based; settings: human, HEK293T cells; 72 h (3-days) treatment, n = 3; read-out: CC50 HEK293T (Cellular IC50, 3-days incubation)
Description: (§1) Approximately 1 × 10^4 JURKAT, MOLM-13, MV4-11 and HEK293T cells in RPMI 1640 (no phenol red) (100 μL) were added to a 96-well plate and treated with DMSO or a compound at indicated concentrations for 72 h or 8 days. Cell viability was measured using the CCK-8 kit (Abcam, ab228554) according to the manufacturer’s instructions.

NLuc-ENL YEATS = biological target: T1, NLuc-ENL YEATS (Homo sapiens, UniProt Q03111); assay: ENL-NanoBRET inhibitor competitive assay; format: cell-based; settings: HEK293T cells stably expressing NLuc-ENL YEATS, 1 μM Tracer 2, 2 h; mean ± SD, n = 3
T1 construct: DNA encoding the ENL YEATS domain (aa 1–148) was cloned into an NLuc containing plasmid; expressed in transfected cells
T1 sequence (Q03111 1-148): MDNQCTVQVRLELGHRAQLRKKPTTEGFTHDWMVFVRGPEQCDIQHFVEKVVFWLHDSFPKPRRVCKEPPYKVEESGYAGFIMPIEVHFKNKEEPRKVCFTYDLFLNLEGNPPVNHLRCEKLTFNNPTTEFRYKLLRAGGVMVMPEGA
Description: (§2) Approximately 1.8 × 10^4 HEK293T cells (100 μL) stably expressing NLuc-ENL YEATS were seeded into a white nonbinding 96-well assay plate and incubated overnight at 37 °C in a humidified 5% CO2 atmosphere. After removal of the medium, the cells were added with a tracer (with or without excess of unlabeled compound) in the Opti-MEM with 0.1% DMSO. After incubation at 37 °C for 2 h the assay plate was equilibrated at room temperature for 15 min. For BRET detection, the NanoGlo Substrate and the extracellular NanoLuc inhibitor (Promega, N2160) were diluted with Opti-MEM as described in protocol to afford detection solution. 50 μL of the detection solution was added per well and the plate was incubated for 3 min at room temperature. The donor emission was measured at 450 nm and the acceptor emission at 610 nm using a BioTek SYNERGY neo2 multimode reader. The BRET ratio was calculated according to the following formula: BRET ratio = [(acceptorsample/donorsample) – (acceptorno-tracer control/donorno-tracer control)] × 1000.
Sample procedures were followed for cell seeding as described in the previously described tracer affinity assay. After removal of the medium, the cells were added with a tracer in the medium (1.1 μM, 100 μL) and varied concentrations of a test compound in 0.1% DMSO (10 μL). The plate was thoroughly mixed on an orbital shaker for 15 s at 900 rpm. Then the cells were incubated at 37 °C, 5% CO2 for 2 h for BRET ratio detection as described previously.

ENL YEATS = biological target: T2, ENL YEATS (Homo sapiens, UniProt Q03111); assay: AlphaScreen assay with biotinylated ENL-S1 peptide; settings: inhibition of ENL YEATS binding to ENL-S1 peptide; mean ± SD, n = 3; read-out: Alpha IC50 (nM) for ENL YEATS
T2 construct: final concentrations of 100 nM His-ENL YEATS, 100 nM Biotin-ENL-S1
T2 sequence (Q03111 1-138 limits assumed): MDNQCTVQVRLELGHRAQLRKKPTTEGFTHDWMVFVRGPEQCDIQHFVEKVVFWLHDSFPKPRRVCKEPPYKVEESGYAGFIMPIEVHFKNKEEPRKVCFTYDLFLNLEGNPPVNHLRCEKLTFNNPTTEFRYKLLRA
Description: The AlphaScreen assay was carried out in 384-well plates. Manual assay setup was performed in a 40 μL reaction buffer (50 mM HEPES pH 7.4, 100 mM NaCl, 0.1% bovine serum albumin, and 0.05% CHAPS) with final concentrations of 100 nM His-ENL YEATS, 100 nM Biotin-ENL-S1, and 20 μg/mL of AlphaScreen donor and acceptor beads. The protein, peptide, and compounds were mixed and incubated for 1 h at room temperature and then incubated for 30 min in dark after adding the α beads. AlphaScreen-signals were detected by a multimode microplate reader (BioTeK Synergy Neo2) equipped with an Alpha-laser (PerkinElmer).

[3] = In vitro metabolic stability assay in HLM; format: in vitro ADME, human; settings: for parent compound remaining after 60 min incubation in HLM: in the presence of NADPH
Description: At 0, 5, 15, 30, 45, and 60 min, 200 μL acetonitrile (with the internal standard diclofenac as 10 μg/mL) was added to terminate the reaction, the remaining compound was analyzed by HPLC-MS/MS.

[4] = Cell toxicity assay (CCK-8), MOLM-13; format: cell-based; settings: human, MOLM-13 cells, 8 day treatment, n = 3; read-out: CC50 MOLM-13 (Cellular IC50, 8-days incubation)
Description: as §1

MOLM-13 cells [5] = assay: Cell toxicity assay (CCK-8), MOLM-13; format: cell-based; settings: for IC50: 8 day treatment, n = 3, read-out: CC50 MOLM-13 (Cellular IC50, 8-days incubation)
Description: as §1

MOLM-13 cells [6] = assay: Anti-proliferation assay, MOLM-13; format: cell-based; settings: 1 μM, approximately 2 weeks
Description: (§3) Cell proliferation assays were carried out in a 96-well tissue culture plate at 2 × 10^4 cells/well for all cell lines except in 200 μL with a compound added as 1:1000 dilution of DMSO stocks in triplicate. Culture density was determined every 3–4 days using the countess automated cell counter, after which 2 × 10^4 live cells were reseeded in fresh media and compound. The cumulative cell count was achieved by back calculation.

MV4-11 cells [7] = assay: Anti-proliferation assay, MV4-11; format: cell-based; settings: 1 μM, approximately 2 weeks
Description: as §3

[8] = Cell toxicity assay (CCK-8), Jurkat; format: cell-based; settings: human, Jurkat cells; 8 day treatment, n = 3; read-out: CC50 Jurkat (Cellular IC50, 8-days incubation)
Description: as §1

ENL YEATS domain [9] = biological target: T3, ENL YEATS domain (Homo sapiens, UniProt Q03111); assay: Biolayer interferometry (BLI); format: binding; settings: biotinylated ENL YEATS on SSA biosensors, 1:1 model
T3 construct: Biotinylated-ENL YEATS was immobilized onto SSA biosensors; biotin (biotinylated)
T3 sequence (Q03111 1-138 limits assumed): T2 sequence (Q03111 1-138 limits assumed)
Description: Superstreptavidin biosensors were first incubated in an assay buffer (20 mM Tris, pH 7.8, 300 mM NaCl, 0.05% Tween 20, 0.1% DMSO) for 15 min. Sensors were coated with 40–60 μg/mL of biotinylated ENL for 15 min at room temperature. Inhibitors were serially diluted across a 96-well plate in a volume of 200 μL. Association of samples to either ENL- or uncoated reference sensors was measured over 300 s and dissociation over 300 s with baseline measurements (buffer only) for 300 s. All assays were run with continuous 1000 rpm shaking. Data were analyzed using the OctetRED data analysis software with reference subtraction in which reference uncoated sensors and reference samples were subtracted. Then, global kinetic fit was performed for all sonogram curves with a 1:1 model to get KD values.

[10] = In vitro stability assay in human plasma; format: in vitro ADME; settings: 37 °C; for Plasma % of parent compound remaining (after 2h incubation): 5 μM, mean ± SD, n = 3
Description: The in vitro stability analysis of a test compound was initiated by the addition of the test compound to 90 μL of prewarmed (37 °C) human plasma with a final concentration of 5 μM. All assays were performed in a plate shaker at 37 °C and conducted in triplicate. At 0, 5, 15, 30, 60, and 120 min, 400 μL acetonitrile (with the internal standard diclofenac as 10 μg/mL) was added to deproteinize the plasma and terminate the reaction, the remaining compound was then analyzed by HPLC-MS/MS.

[11] = biological target: T4, NLuc-ENL YEATS fusion protein (Homo sapiens, UniProt Q03111); assay: NanoBRET apparent tracer affinity; format: cell-based; settings: HEK293T cells
T4 construct: DNA encoding the ENL YEATS domain (aa 1–148) was cloned into an NLuc containing plasmid; expressed in transfected cells
T4 sequence (Q03111 1-148): T1 sequence (Q03111 1-148)
Description: as §2

[12] = Cell toxicity assay (CCK-8), MV4-11; format: cell-based; settings: human, MV4-11 cells, 8 day treatment, n = 3; read-out: CC50 MV4-11 (Cellular IC50, 8-days incubation)
Description: as §1

MV4-11 cells [13] = assay: Cell toxicity assay (CCK-8), MV4-11; format: cell-based; settings: 8 day treatment, n = 3; read-out: CC50 MV4-11 (Cellular IC50, 8-days incubation)
Description: as §1

ENL YEATS domain [14] = biological target: T3, ENL YEATS domain; settings: cited from earlier work
[15] = human, human liver microsomes, pH 7.4, HLM 0.5 mg/mL, NADPH 1 mM, mean ± SD, n = 3, read-out: Liver Microsome CLint, pred
[16] = human, human liver microsomes, pH 7.4, HLM 0.5 mg/mL, NADPH 1 mM, mean ± SD, n = 3, read-out: Liver Microsome t1/2

Row | Compound | chromatographic logD [1] | IC50 at 72 h [2] | IC50 (NLuc-ENL YEATS) | CLint scaled at 1 h [3, 15] | half-life at 1 h [3, 16] | IC50 at 8 days [4] | IC50 at 8 days [8] | Kd (ENL YEATS domain [9]) | Plasma % of parent compound remaining (after 2h incubation) [10] | other results
1 | CC(C)C1CCN1Cc1cc2cnc(NC(=O)c3ccc4nncn4c3)cc2[nH]1 (stereo not shown) [SR-C-107] | 0.82 | > 64000 nM | 1480 nM | 8.69 ± 0.01 mL/min/kg | 3.37 ± 0.421 h | < 4000 nM | > 64000 nM | 565 nM | 90.77% and 90.77 ± 4.67% | IC50 (ENL YEATS): 121 ± 28 nM; IC50 (MOLM-13 cells [5]): 2570 ± 280 nM; inhibition of MOLM-13 cell proliferation (MOLM-13 cells [6]): strong inhibition of cell proliferation; inhibition of MV4-11 cell proliferation (MV4-11 cells [7]): strong inhibition of cell proliferation
2 | O=C(CCC1=[N+]2C(=Cc3ccc(-c4ccc[nH]4)n3[B-]2(F)F)C=C1)NCCCCSc1ccc(CNC(=O)c2ccc3nncn3c2)cc1 [Tracer 1, N-(4-((4-(3-(5,5-Difluoro-7-(1H-pyrrol-2-yl)-5H-4l4,5l4-dipyrrolo[1,2-c:2′,1′-f][1,3,2]diazaborinin-3-yl)propanamido)butyl)thio)benzyl)-[1,2,4]triazolo[4,3-a]pyridine-6-carboxamide] |  |  |  |  |  |  |  |  |  | affinity profile of tracer for NLuc-ENL YEATS fusion protein ([11]; Figure S5a): limited affinity profile
3 | O=C(CCC1=[N+]2C(=Cc3ccc(-c4ccc[nH]4)n3[B-]2(F)F)C=C1)NCCCC(=O)Nc1cccc(-c2cn3cc(C(=O)NC4CCC4)ccc3n2)c1 [Tracer 2, N-Cyclobutyl-2-(3-(4-(3-(5,5-difluoro-7-(1H-pyrrol-2-yl)-5H-4l4,5l4-dipyrrolo[1,2-c:2′,1′-f][1,3,2]diazaborinin-3yl)propanamido)butanamido)phenyl)imidazo[1,2-a]pyridine-6-carboxamide] |  |  |  |  |  |  |  |  |  | EC50 ([11]; nonspecific signal removed with 80 μM unlabeled compound 20): 1460 nM
4 | C[C@H]1CCCN1Cc1cc2cnc(NC(=O)c3ccc4nncn4c3)cc2[nH]1 [YR-D-120, (S)-N-(2-((2-Methylpyrrolidin-1-yl)methyl)-1H-pyrrolo[3,2-c]pyridin-6-yl)-[1,2,4]triazolo [4,3-a]pyridine-6-carboxamide] | 0.08 | > 64000 nM | 2020 nM | 4.76 mL/min/kg | 6.15 ± 0.582 h | < 4000 nM | > 64000 nM | 645 nM | 83.10 ± 3.49% | IC50 at 8 days [12]: < 4000 nM; IC50 (MV4-11 cells [13]): 3280 ± 650 nM; IC50 (ENL YEATS): 183 ± 25 nM; parent compound remaining after 60 min incubation in HLM [3]: over 90%; IC50 (MOLM-13 cells [5]): 3610 ± 490 nM; degradation after 2 h incubation in human plasma [10]: approximately 15%
5 | O=C(Nc1cc2[nH]c(CN3CCC3C3CC3)cc2cn1)c1ccc2nncn2c1 [YR-D-121] | 0.13 | > 64000 nM | 2360 nM | 3.51 mL/min/kg | 8.29 ± 0.671 h | 6960 nM | > 64000 nM | 1340 nM | 82.54 ± 6.09% | IC50 at 8 days [12]: 14200 nM; parent compound remaining after 60 min incubation in HLM [3]: over 90%; degradation after 2 h incubation in human plasma [10]: approximately 15%
6 | CC(C)(C)C1CCN1Cc1ccc(CNC(=O)c2ccc3nncn3c2)cc1 (stereo not shown) [inhibitor 14] | 0.42 |  | > 20000 nM |  |  |  |  |  | 97.60 ± 0.74% | CLint scaled [3, 15]: 2.42 ± 0.14 mL/min/kg; half-life [3, 16]: 12 ± 0.741 h; inhibition at 64 µM (MOLM-13 cells [5]; Homo sapiens, MOLM-13, 64 μM, 72-h treatment, Figure S8f, read-out: growth inhibition in MOLM-13 cells): ~30%
7 | H3K27cr peptide: commonly used biotinylated H3K27cr peptide for the AlphaScreen assay |  |  |  |  |  |  |  |  |  | Kd (ENL YEATS domain [14]): 34000 nM
